Earlier results on two compounds are cited in patent US20130108982A1, “Reshapable Device for Fixation at a Dental Site” (COLLDENT Y.A. LTD., priority 2007, published 2013).

`F` [fluoride]: the “acute lethal dose of fluoride (F)” value (acute) is 33 mg F/Kg body weight. Besides, for the setting “chronic”, the chronic toxicity is given as 0.1 mg F/Kg.

In the case of `[F][Sn][F]` [stannous fluoride], the antibacterial activity result in the data set on bacteria was “has shown antibacterial activity”.
